In US7998460B2, “Prevention of deficits in neurogenesis with anti-inflammatory agents” (The Board of Trustees of the Leland Stanford Junior …, priority 2003, dated 2011):
Entries after “also recorded” stand apart in the source; their conditions may differ.

Assays:
[1] = Sickness behavior and weight loss after LPS in mice; assay type: in vivo, mouse; settings: for effect of NSAID on LPS-induced sickness behavior and weight loss: oral NSAID course
Source text: LPS-induced transient illness is associated with mild but persistent memory impairment. Hippocampal neurogenesis, a phenomenon that persists throughout life in men and mice alike, has been linked to learning and memory by several groups. Manipulations that chronically deplete hippocampal neurogenesis produce concomitant impairments in cognition, particularly hippocampus-dependent memory. […] To determine whether LPS-induced illness affects learning and/or memory during either the acute recovery phase or in asymptomatic mice, a single 0 or 5 mg/kg injection of LPS was administered with daily subcutaneous saline injections over 4 days to maintain hydration and their behavior examined in locomotor chambers and/or the Morris water maze task either in the week following treatment or beginning 4 weeks after treatment when the decrease in net neurogenesis is most apparent.
Subjects. All mice used as subjects in this study were treated in accordance with the policies set forth by the Stanford Animal Care and Use Committee and NIH regarding the ethical use of animals for experimentation. CB57BI/6 mice (7 wks old upon arrival from -Taconic) were housed in groups of 4-5 in autoclaved shoebox cages under standard conditions and were given free access to autoclaved Prolab Mouse 3000 chow (PMI Nutrition International, St. Louis, Mo.) and autoclaved tap water. […] Louis, Mo.) to induce transient illness (Day 0) and daily subcutaneous (s.c.) isotonic saline (0.5 ml) injections (Days 0-3) to prevent illness-induced dehydration. The cell synthesis marker bromodeoxyuridine (BrdU; Sigma Aldrich, St. Louis, Mo.) was injected i.p. (50 mg/kg at a concentration of 10 mg/ml in freshly prepared isotonic saline) once per day for 6 days to label dividing cells, beginning Day 0 (2 h after LPS). The mice were anesthetized with ketamine/xylazine and killed at Days 7 or 28 (to assess hippocampal neurogenesis during illness and just before behavioral testing, respectively) or Day 80 (to measure hippocampal neurogenesis following behavioural testing) by perfusion with 4% paraformaldehyde. Brains were post-fixed overnight in perfusate, microtome sectioned at 40 μm through the hippocampus and stored in tissue cryoprotectant solution at −20° C. until processed immunohistochemically.

hippocampal neurogenesis = experiment: LPS-induced systemic inflammation, hippocampal neurogenesis, one-week BrdU labeling paradigm; assay type: in vivo, rat
Experimental: To determine the effects of inflammation on adult hippocampal neurogenesis, bacterial lipopolysaccharide (LPS) was injected into adult female rats to induce systemic inflammation. The intraperitoneal administration of LPS causes a peripheral inflammatory cascade that is transduced to the brain via IL-1β from the cerebral vasculature and causes a strong upregulation of central pro-inflammatory cytokine production. Following LPS exposure, rats were treated systemically with bromo-deoxyuridine (BrdU) for 6 days to label proliferating cells within the hippocampus. Animals were then sacrificed on the 7th day. The fate of the BrdU-labeled, proliferative cells was analyzed with immuno-fluorescent staining and confocal microscopy.
Control animals were given either vehicle (5% bicarbonate) injections i.p. or plain dog food. To ensure complete consumption of food and medication in the 2 month paradigm, rats were restricted to 80% of their ad lib intake.
LPS exposure. Bacterial lipopolysaccharide (LPS, Sigma, St Louis, Mo.) was administered in sterile saline by intraperitoneal injection at a dose of 1 mg/Kg one time. This caused mild sickness behavior (decreased grooming, decreased locomotor activity, increased piloerection) for approximately 2 days, resolving by the 3rd day. The dose of LPS chosen causes mild sickness behavior in rats that resolves within 1-2 days; the dose of LPS used to induce endotoxic shock is 10-fold higher than that used in the present study.
Immunocytochemistry and immunofluorescent staining. Free floating sections were immunostained as previously described using the following primary antibodies and working concentrations: mouse anti-NeuN (1:4, gift from R. Mullen); guinea pig-anti GFAP (1:800, Harlan, Indianapolis, Ind.); mouse anti-type III βtubulin (Tuj-1, 1:500, Berkeley Antibody Co., Richmond, Calif.); rabbit anti-NG2 (1:200, Chemicon, Temecula, Calif.); mouse anti-rat CD11b (1:200, Serotec, Oxford, U.K.); mouse anti-ED-1 (1:100, Research Diagnostics Inc., Flanders, N.J.); biotinylated-Lycopersicon esculentum (tomato) lectin (1:200, Vector, Burlingame, Calif.).
Confocal microscopy. All confocal microscopy was performed using a Zeiss 510 confocal microscope. Appropriate gain and black level settings were determined on control tissues stained with secondary antibodies alone. Upper and lower thresholds were always set using the range indicator function to minimize data loss through saturation.
Cell counting and unbiased stereology. All counts were limited to the hippocampal granule cell layer proper and a 50 μm border along the hilar margin that included the neurogenic subgranule zone. The proportion of BrdU cells displaying a lineage-specific phenotype was determined by scoring the co-localization of cell phenotype markers with BrdU using confocal microscopy. Split panel and z-axis analysis were used for all counting. All counts were performed using multi-channel configuration with a 40× objective and electronic zoom of 2. When possible, 100 or more BrdU-positive cells were scored for each marker per animal. Each cell was manually examined in its full “z”-dimension and only those cells for which the nucleus was unambiguously associated with the lineage-specific marker were scored as positive. The total number of BrdU-labeled cells per hippocampal granule cell layer and subgranule zone was determined using diaminobenzadine stained tissues. In a separate series, the total number of ED1-labeled cells per dentate gyrus was also determined using diaminobenzadine stained tissue. Stained BrdU-positive nuclei or ED1-positive cells were scored under light microscopy using Microbrightfield Stereo Investigator software and the Fractionator method. Overestimation was corrected using the Abercrombie method for nuclei with empirically determined average diameter of 13 μm within a 40 μm section.

[2] = indomethacin 2.5 mg/kg i.p. twice each day with LPS
[3] = LPS 1 mg/Kg i.p. once, sacrifice on 7th day

Molecule: COc1ccc2c(c1)c(CC(=O)O)c(C)n2C(=O)c1ccc(Cl)cc1 [indomethacin]
- effect of NSAID on LPS-induced sickness behavior and weight loss ([1]; LPS 5 mg/kg): not significantly attenuated
- effect of NSAID on LPS-induced sickness behavior and weight loss ([1]; LPS 5 mg/kg, listed as Indomethacin): not significantly affected
- effect on density of activated microglia (ED1+) after LPS (hippocampal neurogenesis; [2]): decreases this inflammatory response
- effect on distance from BrdU+ nucleus to nearest vessel after LPS (hippocampal neurogenesis; [2]): restores the vascular association
- effect on LPS-induced inhibition of neurogenesis (hippocampal neurogenesis; indomethacin 2.5 mg/kg i.p. twice each day, concurrently with LPS): completely blocked; also recorded: restores neurogenesis
- effect on neurogenesis in control animals (drug alone) (hippocampal neurogenesis; indomethacin 2.5 mg/kg i.p. twice each day, no LPS): no effect

Molecule: lipopolysaccharide [LPS]
- days to recovery of body weight ([1]; LPS 5 mg/kg): 4 days
- days to recovery of body weight ([1]; LPS 7.5 mg/kg): 5 days
- days to recovery of body weight ([1]; LPS 10 mg/kg): 6 days
- onset of sickness behavior (hunching, piloerection, sweaty fur) ([1]; after LPS injection): 1 to 2 h
- day by which weight loss is fully restored ([1]; lowest LPS dose tested): ≤ 6 days
- loss of body weight ([1]; lowest LPS dose tested (titration 5-10 mg/kg)): roughly 20%
- loss of body mass ([1]; within 2 d following LPS injection): approximately 10%
- decrease in hippocampal neurogenesis (proportion of non-microglial BrdU+ cells co-expressing Dcx) (hippocampal neurogenesis; [3]): 35%
- increase in the density of activated microglia (CD68/ED1-positive) in the dentate gyrus (hippocampal neurogenesis; [3]): 240%
